From paper PMC9918889, “Alkaloids and Styryl lactones from Goniothalamus ridleyi King and Their α-Glucosidase Inhibitory Activity” (Molecules, 2023)
Values after ≈ are worked out from the molar mass of the structure shown.

Legend:
α-glucosidase = experiment: colorimetric α-glucosidase inhibitory assay; type: biochemical; settings: for %Inhibition at 250 µg/mL: sample at 250 µg/mL; for IC50: substrate p-nitrophenyl α-D-glucoside, 37 °C
Description: The previously reported approach was used to perform a colorimetric α-glucosidase assay. Briefly, the tested samples (50 µL) were combined with 50 µL of the α-glucosidase enzyme solution (0.05 U/mL) and preincubated at 37 °C for 5 min. The substrate (50 µL, c 1 mM), p-nitrophenyl α-D-glucoside, was added and incubated at 37 °C for 30 min. Then, 50 µL of Na2CO3 (0.3 M) was added. The absorption of the mixture was measured at 405 nm.

Plasmodium falciparum = system: Plasmodium falciparum; design: method as in PMID 19573585; settings: cited from earlier work
HCT116 = system: HCT116; design: method as in PMID 31918304; settings: colon cancer cell line HCT116; read-out: IC50, cytotoxicity against HCT116; cited from earlier work

| Compound | %Inhibition at 250 µg/mL (α-glucosidase) [%] | other results |
| --- | --- | --- |
| O=C1C=CC(=CC=Cc2ccccc2)O1 [Compound 7, 5-(3-phenyl-2-propenylidene)-2(5H)-furanone] | 98.6 | IC50 (α-glucosidase): 1.25 ± 0.4 µM |
| C[C@H]1O[C@H](O[C@H]2[C@H](O)[C@@H](O)[C@@H](O[C@H]3[C@H](O)[C@@H](O)C(O)O[C@@H]3CO)O[C@@H]2CO)[C@H](O)[C@@H](O)[C@@H]1N[C@H]1C=C(CO)[C@@H](O)[C@H](O)[C@H]1O (stereo partly shown) [Acarbose, reference compound] | 88.1 |  |
| Cn1cc(CO)c2c1C(=O)c1ccccc1C2=O [Compound 2, 3-hydroxymethyl-1-methyl-1H-benz[f]indole-4,9-dione] | 99.3 |  |
| Cn1cc(C(=O)O)c2c1C(=O)c1ccccc1C2=O [Compound 3, goniochelienic acid B] | 99.5 |  |
| COc1cccc2c1cc1c3c(cc4c(c32)OC2Oc3c(cc5c6c(cc7ccccc7c36)NC5=O)OC2O4)C(=O)N1 (stereo not shown) [Compound 1, Gonioridleylactam] | 99.6 | IC50 (α-glucosidase): 138.9 ± 0.9 µM; melting point: 296 to 298 °C |
| CC(=O)O[C@H]1[C@H]2OC(=O)C=C[C@@H]2O[C@H]1c1ccccc1 [(+)-3-Acetylaltholactone] |  | IC50, antiplasmodial activity (Plasmodium falciparum): 2.6 mg/L (≈ 9.48 µM) |
| O=C1C=CCC(/C=C\c2ccccc2)O1 (stereo not shown) [(Z)-6-styryl-5,6-dihydro-2-pyranone] |  | IC50 (HCT116): 22.2 µM |
| C[C@@H]1C2=C(NC(=O)[C@@H]1O)C(=O)c1ccccc1C2=O [Compound 4, griffithazanone A] | 98.0 |  |
| O=C1C=C[C@@H](O)[C@@H](/C=C/c2ccccc2)O1 [Compound 9, (−)-5-hydroxygoniothalamin] | 99.8 |  |
| (−)-nordicentrine |  | IC50, antiplasmodial activity (Plasmodium falciparum): 0.3 mg/L |
